For one data set, the target named is T1, human mGluR5d (Homo sapiens, UniProt P41594).
T1 construct: expressed in transfected cells; The separate IP3 assay names GHEK cells
The data set is described as follows: FLIPR assay: mobilization of intracellular calcium in cells expressing human mGluR5d. The class given is cell-based. The settings on record: antagonism of agonist-induced [Ca2+]i response, read-out: FLIPR hmGluR5d. The source says: Functional Assessment of mGluR5 Antagonism in Cell Lines Expressing mGluR5D
The properties of the compounds of the invention can be analyzed using standard assays for pharmacological activity. Examples of glutamate receptor assays are well known in the alt as described in for example Aramori et al., Neuron 8:757 (1992), Tanabe et al., Neuron 8:169 (1992), Miller et al., J. Neuroscience 15: 6103 (1995), Balazs, et al., J. Neurochemistry 69:151 (1997). The methodology described in these publications is incorporated herein by reference. Conveniently, the compounds of the invention can be studied by means of an assay (FLIPR) that measures the mobilization of intracellular calcium, [Ca^2+]i in cells expressing mGluR5 or another assay (IP3) that measures inositol phosphate turnover.
Cells expressing human mGluR5d as described in WO97/05252 cultured in a mixture of high glucose DMEM with Glutamax (31966-021)(500 mL), 10% dialyzed fetal bovine serum (Hyclone #SH30079.03)(56 mL), 200 μg/in L Hygromycin B (Invitrogen 45-0430, 50 mg/mL)(2.2 mL), 200 μg/mL Zeocin (Invitrogen #R250-01; 100 mg/mL)(1.1 mL) are seeded at a density of 100,000 cells per well on collagen coated clear bottom 96-well plates with black sides and cells were allowed to adhere over night before experiments. All assays are done in a buffer containing 146 mM NaCl, 5 mM KCl, 1 mM MgCl2, 1 mM CaCl2, 20 mM HEPES, 1 mg/mL glucose and 1 mg/mL BSA Fraction IV (pH 7.4). Cell cultures in the 96-well plates are loaded for 60 minutes in the above mentioned buffer containing 6 μM of the acetoxymethyl ester form of the fluorescent calcium indicator fluo-3 (Molecular Probes, Eugene, Oreg.) in 0.025% pluronic acid (a proprietary, non-ionic surfactant polyol—CAS Number 9003-11-6). Following the loading period the fluo-3 buffer is removed and replaced with fresh assay buffer. FLIPR experiments are done using a laser setting of 0.700 W and a 0.4 second CCD camera shutter speed with excitation and emission wavelengths of 488 nm and 562 nm, respectively. Each experiment is initiated with 160 μl of buffer present in each well of the cell plate. A 40 μl addition from the antagonist plate was followed by a 50 μL addition from the agonist plate. A 30 minutes, in dark at 25° C., interval separates the antagonist and agonist additions. The fluorescence signal is sampled 50 times at 1-second intervals followed by 3 samples at 5-second intervals immediately after each of the two additions. Responses are measured as the difference between the peak heights of the response to agonist less the background fluorescence within the sample period. IC50 determinations are made using a […] least squares fitting program.

Data set [1] can be described thus: Determination of brain to plasma ratio in rat. The format is in vivo. The settings on record: brain and plasma, female Sprague Dawley rats, drug in brain over drug in plasma, read-out: Brain/Plasma Ratio of compound in Rat. The method, then: Brain to plasma ratios are estimated in female Sprague Dawley rats. The compound is dissolved in water or another appropriate vehicle. For determination of brain to plasma ratio the compound is administrated as a subcutaneous, or an intravenous bolus injection, or an intravenous infusion, or an oral administration. At a predetermined time point after the administration a blood sample is taken with cardiac puncture. The rat is terminated by cutting the heart open, and the brain is immediately retained. The blood samples are collected in heparinized tubes and centrifuged within 30 minutes, in order to separate the plasma from the blood cells. The plasma is transferred to 96-well plates and stored at −20° C. until analysis. The brains are divided in halt and each half is placed in a pre-tarred tube and stored at −20° C. until analysis. Prior to the analysis, the brain samples are thawed and 3 mL/g brain tissue of distilled water is added to the tubes. The brain samples are sonicated in an ice bath until the samples are homogenized. Both brain and plasma samples are precipitated with acetonitrile. After centrifugation, the supernatant is diluted with 0.2% formic acid. Analysis is performed on a short reversed-phase HPLC column with rapid gradient elution and MSMS detection using a triple quadrupole instrument with electrospray ionisation and Selected Reaction Monitoring (SRM) acquisition. Liquid-liquid extraction may be used as an alternative sample clean-up. The samples are extracted, by shaking, to an organic solvent after addition of a suitable buffer. An aliquot of the organic layer is transferred to a new vial and evaporated to dryness under a stream of nitrogen. After reconstitution of the residuals the samples are ready for injection onto the HPLC column.

T1 sequence (P41594 21-942 isoform P41594-3 limits assumed): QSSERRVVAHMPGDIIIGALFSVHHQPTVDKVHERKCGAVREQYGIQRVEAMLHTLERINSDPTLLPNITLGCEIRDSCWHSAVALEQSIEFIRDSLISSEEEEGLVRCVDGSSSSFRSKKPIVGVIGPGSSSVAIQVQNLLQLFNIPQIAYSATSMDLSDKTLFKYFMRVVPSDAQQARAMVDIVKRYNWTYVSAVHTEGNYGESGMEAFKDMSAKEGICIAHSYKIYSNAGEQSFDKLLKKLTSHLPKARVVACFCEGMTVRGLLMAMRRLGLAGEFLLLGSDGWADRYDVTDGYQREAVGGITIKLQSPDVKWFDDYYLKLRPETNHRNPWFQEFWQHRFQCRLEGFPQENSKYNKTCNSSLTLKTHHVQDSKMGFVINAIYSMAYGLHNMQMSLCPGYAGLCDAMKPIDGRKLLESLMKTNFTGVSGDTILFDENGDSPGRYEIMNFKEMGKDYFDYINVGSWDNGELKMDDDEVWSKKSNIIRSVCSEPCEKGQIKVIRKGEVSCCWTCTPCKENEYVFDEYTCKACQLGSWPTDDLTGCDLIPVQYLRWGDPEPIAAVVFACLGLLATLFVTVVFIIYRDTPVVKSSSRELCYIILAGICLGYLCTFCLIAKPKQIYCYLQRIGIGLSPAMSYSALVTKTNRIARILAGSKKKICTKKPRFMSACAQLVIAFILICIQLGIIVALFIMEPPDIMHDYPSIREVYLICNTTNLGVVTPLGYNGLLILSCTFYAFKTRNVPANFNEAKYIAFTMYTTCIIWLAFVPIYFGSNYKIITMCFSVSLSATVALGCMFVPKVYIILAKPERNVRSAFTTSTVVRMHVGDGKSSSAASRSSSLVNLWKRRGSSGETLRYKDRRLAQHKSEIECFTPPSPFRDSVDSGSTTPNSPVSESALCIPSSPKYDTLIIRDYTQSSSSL

`C[C@@H](Oc1nnc(-c2ccc(C(N)=O)cc2)n1C)c1noc(-c2cccc(Cl)c2)n1` [Example 10.1, 4-(5-{(1R)-1-[5-(3-Chlorophenyl)-1,2,4-oxadiazol-3-yl]ethoxy}-4-methyl-4H-1,2,4-triazol-3-yl)benzamide]: the IC50 on human mGluR5d amounted to 8 nM. The Kp in data set [1] came to 0.03.

As for `C[C@@H](Oc1nnc(-c2ccc(C(N)=O)cc2)n1C)c1nnn(-c2cccc(Cl)c2)n1` [Example 10.2, 4-(5-{(1R)-1-[2-(3-Chlorophenyl)-2H-tetrazol-5-yl]ethoxy}-4-methyl-4H-1,2,4-triazol-3-yl)benzamide], the IC50 on human mGluR5d is 6 nM. The Kp in data set [1] stood at 0.01.

`C[C@@H](Oc1nnc(-c2ccc(C(N)=O)cn2)n1C)c1nnn(-c2cccc(Cl)c2)n1` [Example 10.3, 6-(5-{(1R)-1-[2-(3-Chlorophenyl)-2H-tetrazol-5-yl]ethoxy}-4-methyl-4H-1,2,4-triazol-3-yl)nicotinamide]: the IC50 on human mGluR5d was 5 nM. Moreover, in data set [1], the Kp is 0.075.

As for `Cc1cccc(-n2nnc([C@@H](C)Oc3nnc(-c4ccc(C(N)=O)cn4)n3C)n2)c1` [Example 10.4, 6-(4-Methyl-5-{(1R)-1-[2-(3-methylphenyl)-2H-tetrazol-5-yl]ethoxy}-4H-1,2,4-triazol-3-yl)nicotinamide], at human mGluR5d, the IC50 is 6 nM. For the same compound, the Kp in data set [1] was determined as 0.09.

For the origin of these results see patent US20090111857A1, “1,2,4-TRIAZOLE ETHER DERIVATIVES AS MODULATORS OF MGLUR5” (AstraZeneca AB, priority 2007, published 2009).
